Data on 28 molecules can be found in US10213415B2, “Compounds as opioid receptor modulators” (JANSSEN PHARMACEUTICA NV, priority 2004, dated 2019).

“And” between values parts separate entries of the source, which are not always exact repeats. Equal values may be shown once.

The target in assay [1] is T1, mu opioid receptor (CHO-hMOR cell membranes) (Homo sapiens, UniProt P35372).
T1 construct: purchased Receptor Biology, Inc. (Baltimore, Md.); host or cells: CHO cells (recombinant expression)
As to the kind of experiment: Mu Opioid Receptor Functional Assay: [35S]GTPγS Binding in CHO-hMOR Cell Membranes, Versions 1 and 2. The note with it: for MOR GTP binding assay_v1 (% I): version 1, % inhibition of agonist-stimulated GTPγS binding; for MOR GTP assay_v1 % of Basal: version 1, basal binding = 100%; for MOR GTP binding assay_v2 (% I): version 2, % inhibition of agonist-stimulated GTPγS binding; for EC50: version 2, read-out: MOR GTP binding assay v2 EC50. It is filed as biochemical. In a few lines:
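CHO-hMOR membranes (10 μg/ml) on WGA SPA beads, preincubated 45 min at 25 °C, then incubated with 0.5 nM [35S]GTPγS in HEPES pH 7.6, 5 mM MgCl2, 100 mM NaCl, 1 mM DTT, 1 mM EDTA. Non-specific binding with 10 μM unlabeled GTPγS; agonist EC50 from concentration-response, antagonism as inhibition of 1 μM SNC80-stimulated binding.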
For orientation: Binding of GTPγS marks nucleotide exchange on a G protein.

A further assay concerns the target T2, delta opioid receptor (Rattus norvegicus, UniProt P33533).
T2 construct: from tissue; host or cells: forebrain of male Wistar rats
In words: Rat Brain Delta Opioid Receptor Binding Assay ([3H]DPDPE). The note with it: rat forebrain membranes, margin of error 10-20%, read-out: r Ki δ. In a few lines: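 Rat (male Wistar) forebrain membranes in 50 mM Tris-HCl pH 7.4 with 5 mM MgCl2, incubated with ~4 nM [3H]DPDPE for 2.5 h at 25 °C. Bound ligand collected by filtration and scintillation counting. Single-concentration data given as % inhibition of specific binding; concentration series fitted to Ki.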

In the next assay the target is T3, human mu opioid receptor (Homo sapiens, UniProt P35372).
T3 construct: purchased Perkin Elmer RBHOMM400UA; host or cells: Chinese Hamster Ovary cells (recombinant expression)
In words: Human Mu Opioid Receptor Binding Assay (CHO membranes, 3H-Damgo). Conditions: read-out: hKi μ. An outline of the steps: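 Membranes from CHO cells expressing human mu opioid receptor, 300 μg/mL, in 50 mM Tris pH 7.5, 5 mM MgCl2. Incubated with compound and ³H-Damgo (3.6 nM before mixing) for 2 h at room temperature, filtered, counted by scintillation. Nonspecific binding with 1 μM unlabelled Damgo.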

T3 sequence (P35372 whole entry): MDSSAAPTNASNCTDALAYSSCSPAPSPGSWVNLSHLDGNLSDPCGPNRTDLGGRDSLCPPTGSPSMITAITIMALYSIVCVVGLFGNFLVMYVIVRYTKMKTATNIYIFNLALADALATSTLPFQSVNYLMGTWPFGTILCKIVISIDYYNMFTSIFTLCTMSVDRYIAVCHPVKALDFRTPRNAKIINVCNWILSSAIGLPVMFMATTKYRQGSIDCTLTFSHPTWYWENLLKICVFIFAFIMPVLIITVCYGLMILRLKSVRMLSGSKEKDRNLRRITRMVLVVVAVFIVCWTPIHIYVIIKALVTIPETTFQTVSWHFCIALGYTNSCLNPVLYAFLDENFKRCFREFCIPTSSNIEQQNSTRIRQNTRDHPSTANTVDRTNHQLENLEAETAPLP
T1 sequence (P35372 whole entry): as above
T2 sequence (P33533 whole entry): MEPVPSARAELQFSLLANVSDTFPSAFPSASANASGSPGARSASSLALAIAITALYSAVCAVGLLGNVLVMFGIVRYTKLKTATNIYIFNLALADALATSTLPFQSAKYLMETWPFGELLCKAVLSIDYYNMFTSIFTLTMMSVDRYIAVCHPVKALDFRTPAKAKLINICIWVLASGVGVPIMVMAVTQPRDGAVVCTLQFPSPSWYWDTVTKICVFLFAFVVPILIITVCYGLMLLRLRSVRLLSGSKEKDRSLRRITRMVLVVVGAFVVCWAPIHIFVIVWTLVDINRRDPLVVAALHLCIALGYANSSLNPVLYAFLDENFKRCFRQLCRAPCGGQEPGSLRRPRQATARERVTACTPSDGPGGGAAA

Consider `Cc1cc(O)cc(C)c1C[C@H](N)C(=O)N(Cc1nc(-c2ccccc2)c[nH]1)C(C)C` [Cpd 194], for which the “MOR GTP binding assay_v1 (% I)” value in assay [1] is 1.00%. Moreover, the “MOR GTP assay_v1 % of Basal” value in assay [1] turned out to be 558.00%. The Ki on delta opioid receptor was found to be 14.8 nM; on human mu opioid receptor, 0.13 nM.

Turning to `CCN(C(=O)[C@@H](N)Cc1c(C)cc(O)cc1C)[C@@H](C)c1nc(-c2ccccc2)c[nH]1` [Cpd 216], in assay [1], the “MOR GTP binding assay_v1 (% I)” value was found to be 1.00% and the “MOR GTP assay_v1 % of Basal” value was found to be 666.00%. Also, the Ki on delta opioid receptor came out at 1.14 nM.

For `Cc1cc(O)cc(C)c1C[C@H](N)C(=O)N(C)[C@@H](C)c1nc(-c2ccccc2)c[nH]1` [Cpd 207], at delta opioid receptor, the Ki is 5.3 nM and 5.37 nM and 14.7 nM.

For `COC(=O)c1ccc(CN(C(=O)[C@@H](N)Cc2ccc(C(N)=O)cc2)[C@@H](C)c2nc(-c3ccccc3)c[nH]2)o1` [Cpd 303], in assay [1], the “MOR GTP binding assay_v2 (% I)” value is on record as 1.00% and the EC50 was 30 nM. Further, on human mu opioid receptor, the Ki stood at 3.8 nM.

Consider `CCN(C(=O)[C@@H](N)Cc1c(C)cc(O)cc1C)[C@H](C)c1nc(-c2ccccc2)c[nH]1` [Cpd 217], for which, in assay [1], the “MOR GTP binding assay_v1 (% I)” value came to 1.00% and the “MOR GTP assay_v1 % of Basal” value amounted to 599.00%. The Ki on delta opioid receptor worked out at 5.4 nM.

`COc1ccc(CN(C(=O)[C@@H](N)Cc2ccc(C(N)=O)cc2)[C@@H](C)c2nc(-c3ccccc3)c[nH]2)cc1C(=O)O` [Cpd 4]: the Ki on delta opioid receptor is 11 nM and 17 nM; at human mu opioid receptor it was 5.5 nM.

For the molecule `Cc1cc(C(N)=O)cc(C)c1C[C@H](N)C(=O)N(Cc1cccc(C(=O)O)c1)[C@@H](C)c1nc(-c2ccccc2)c[nH]1` [Cpd 227], in assay [1], the “MOR GTP binding assay_v2 (% I)” value stood at 36.00% and the EC50 is 60.8 nM. The Ki at delta opioid receptor is 0.08 nM and 0.46 nM. In addition, the Ki at human mu opioid receptor stood at 1.92 nM.

Take `C[C@H](c1nc(-c2ccccc2)c[nH]1)N(Cc1ccccc1)C(=O)[C@@H](N)Cc1ccc(O)cc1` [Cpd 221]: in assay [1], the “MOR GTP binding assay_v1 (% I)” value is 13.00%. Besides, the “MOR GTP assay_v1 % of Basal” value in assay [1] worked out at 427.00%. The figures for the Ki on delta opioid receptor and at human mu opioid receptor were 9.58 nM and 0.42 nM, respectively.

For the molecule `Cc1cc(C(N)=O)cc(C)c1C[C@H](N)C(=O)N(Cc1ccccc1)[C@@H](C)c1nc(-c2ccccc2)c[nH]1` [Cpd 114], in assay [1], the “MOR GTP binding assay_v1 (% I)” value is given as 13.20% and the “MOR GTP assay_v1 % of Basal” value amounted to 717.59%. In addition, the Ki at delta opioid receptor was 12 nM. For the same molecule, the Ki on human mu opioid receptor is 1.39 nM.

Regarding `COc1ccc(CN(Cc2nc(-c3ccccc3)c[nH]2)C(=O)[C@@H](N)Cc2ccc(C(N)=O)cc2)cc1C(=O)O` [Cpd 5], the “MOR GTP binding assay_v2 (% I)” value in assay [1] came to 7.87%. In assay [1], the EC50 was 71 nM. Moreover, the Ki is 630 nM and 183 nM on delta opioid receptor; 3.9 nM at human mu opioid receptor.

Consider `COC(=O)c1ccc(CN(C(=O)[C@@H](N)Cc2c(C)cc(C(N)=O)cc2C)[C@@H](C)c2nc(-c3ccccc3)c[nH]2)o1` [Cpd 257], for which, in assay [1], the “MOR GTP binding assay_v2 (% I)” value is listed as 10.96% and the EC50 amounted to 3.9 nM. In addition, the Ki on human mu opioid receptor stood at 3.4 nM.

For the molecule `Cc1cc(O)cc(C)c1C[C@H](N)C(=O)N(C)[C@H](C)c1nc(-c2ccccc2)c[nH]1` [Cpd 206], in assay [1], the “MOR GTP binding assay_v1 (% I)” value came to 1.00% and the “MOR GTP assay_v1 % of Basal” value is on record as 446.00%. Besides, the Ki on delta opioid receptor was found to be 5.8 nM.

For `CCN(C(=O)[C@@H](N)Cc1ccc(O)cc1)[C@@H](C)c1nc(-c2ccccc2)c[nH]1` [Cpd 215], in assay [1], the “MOR GTP binding assay_v1 (% I)” value is on record as 1.00% and the “MOR GTP assay_v1 % of Basal” value stood at 606.00%. For the same molecule, the Ki at delta opioid receptor came to 126 nM. Further, at human mu opioid receptor, the Ki was 1.5 nM.

With `CC(C)N(C(=O)[C@@H](N)Cc1ccc(O)cc1)[C@@H](C)c1nc(-c2ccccc2)c[nH]1` [Cpd 225], the “MOR GTP binding assay_v1 (% I)” value in assay [1] was 1.00%. In addition, in assay [1], the “MOR GTP assay_v1 % of Basal” value is reported as 657.00%. Moreover, the Ki on delta opioid receptor worked out at 112 nM; on human mu opioid receptor it was 1.4 nM.

`CCN(C(=O)[C@@H](N)Cc1ccc(O)cc1)[C@H](C)c1nc(-c2ccccc2)c[nH]1` [Cpd 214]: in assay [1], the “MOR GTP binding assay_v1 (% I)” value is reported as 3.00% and the “MOR GTP assay_v1 % of Basal” value is reported as 295.00%. Besides, on delta opioid receptor, the Ki was 308 nM. Besides, the Ki on human mu opioid receptor was 29 nM.

With `COc1ccc(CN(C(=O)[C@@H](N)Cc2ccc(O)cc2)[C@@H](C)c2nc(-c3ccccc3)c[nH]2)cc1C(=O)O` [Cpd 261], the “MOR GTP binding assay_v2 (% I)” value in assay [1] was determined as 5.88%. Besides, the EC50 in assay [1] was determined as 17 nM. The Ki is 8.01 nM at delta opioid receptor; 2.58 nM and 1.3 nM at human mu opioid receptor.

On to `Cc1cc(O)cc(C)c1C[C@H](N)C(=O)N(Cc1ccnc2ccccc12)[C@@H](C)c1nc(-c2ccccc2)c[nH]1` [Cpd 246], for which, in assay [1], the “MOR GTP binding assay_v2 (% I)” value worked out at 21.30% and the EC50 was found to be 4.5 nM. Besides, the Ki on delta opioid receptor came to 0.035 nM. Further, the Ki at human mu opioid receptor turned out to be 5.63 nM.

As to `Cc1cc(O)cc(C)c1C[C@H](N)C(=O)N(Cc1nc(-c2ccccc2)c(C)[nH]1)C(C)C` [Cpd 166], the “MOR GTP binding assay_v1 (% I)” value in assay [1] worked out at 1.00%. In addition, the Ki on delta opioid receptor was 5.58 nM and 12 nM; on human mu opioid receptor it was 0.39 nM and 0.5 nM.

`Cc1cc(O)cc(C)c1C[C@H](N)C(=O)N(Cc1nc(-c2ccccc2)c[nH]1)C1CCCCC1` [Cpd 190]: in assay [1], the “MOR GTP binding assay_v1 (% I)” value came out at 70.00%. Also, the Ki at delta opioid receptor is 13.8 nM.

With `CC(C)N(Cc1nc(-c2ccccc2)c[nH]1)C(=O)[C@@H](N)Cc1ccc(O)cc1` [Cpd 195], in assay [1], the “MOR GTP binding assay_v1 (% I)” value worked out at 34.00% and the “MOR GTP assay_v1 % of Basal” value was determined as 378.00%. The Ki on delta opioid receptor was 306 nM. Besides, the Ki at human mu opioid receptor was 9.8 nM.

As for `Cc1cc(O)cc(C)c1C[C@H](N)C(=O)N(Cc1cccc(C(=O)O)c1)[C@@H](C)c1nc(-c2ccccc2)c[nH]1` [Cpd 48], in assay [1], the “MOR GTP binding assay_v2 (% I)” value is recorded as 24.53% and the EC50 was found to be 2.2 nM. Further, the Ki on human mu opioid receptor amounted to 0.4 nM.

Consider `C[C@@H](c1nc(-c2ccccc2)c[nH]1)N(Cc1ccccc1)C(=O)[C@@H](N)Cc1ccc(O)cc1` [Cpd 219], for which, in assay [1], the “MOR GTP binding assay_v1 (% I)” value amounted to 1.00% and the “MOR GTP assay_v1 % of Basal” value was found to be 611.00%. Besides, the Ki on delta opioid receptor came to 87.8 nM. Moreover, the Ki at human mu opioid receptor turned out to be 16.2 nM.

As for `C[C@H](c1nc(-c2ccccc2)c[nH]1)N(C)C(=O)[C@@H](N)Cc1ccc(C(N)=O)cc1` [Cpd 203], the “MOR GTP binding assay_v1 (% I)” value in assay [1] was determined as 20.00%. In addition, the “MOR GTP assay_v1 % of Basal” value in assay [1] is recorded as 331.00%. Further, the values for the Ki on delta opioid receptor and at human mu opioid receptor were 49.3 nM and 13.7 nM, respectively.

Consider `COc1ccc(CN(C(=O)[C@@H](N)Cc2c(C)cc(C(N)=O)cc2C)[C@@H](C)c2nc(-c3ccccc3)c[nH]2)cc1OC` [Cpd 75], for which the Ki on delta opioid receptor was 0.66 nM; at human mu opioid receptor, 2.6 nM.

Consider `COc1ccc(CN(C(=O)[C@@H](N)Cc2c(C)cc(C(N)=O)cc2C)[C@@H](C)c2nc(-c3ccc(I)cc3)c[nH]2)cc1C(=O)O` [Cpd 289], for which, at human mu opioid receptor, the Ki amounted to 2.2 nM.

For the molecule `Cc1cc(C(N)=O)cc(C)c1C[C@H](N)C(=O)N(Cc1ccc(C(=O)O)cc1)[C@@H](C)c1nc(-c2ccccc2)c[nH]1` [Cpd 50], the Ki on delta opioid receptor was 0.58 nM; on human mu opioid receptor it was 1.4 nM.

Take `Cc1cc(O)cc(C)c1C[C@H](N)C(=O)N(C)[C@@H](C)c1nc(Cc2ccccc2)c[nH]1` [Cpd 205]: in assay [1], the “MOR GTP binding assay_v1 (% I)” value is 1.00% and the “MOR GTP assay_v1 % of Basal” value was 566.00%. In addition, the Ki on delta opioid receptor is 4.44 nM.

Consider `Cc1cc(C(N)=O)cc(C)c1C[C@H](N)C(=O)N(Cc1cccc(-c2nnn[nH]2)c1)[C@@H](C)c1nc(-c2ccccc2)c[nH]1` [Cpd 242], for which the Ki on delta opioid receptor was determined as 0.18 nM; on human mu opioid receptor, 2.35 nM.

Usually EC50 stands for the concentration that produces a half-maximal response.
